Each structure is given as a SMILES string. Starred links: 1 amine or outer side, 2 acyl side, 3 side chain; linkers in the order of their positions; H or OH if unused. Positions of bridges follow the written chain, without caps; N, C: chain ends. Non-standard residues stand in square brackets, D forms with d. Residues, ends and D or L forms follow the SMILES beside them. Groups on a side chain read outwards from the residue. *: point of attachment. X22 = CCCCCCCCCCCCCC(=O)N[C@H](CCC(=O)NCCCC[C@H](NC(=O)CCC(=O)NCCCOCCOCCOCCCN*)C(N)=O)C(=O)O; X27 = CCCCCCCCCCCCCCCCNC(=O)CCC(=O)NCCCOCCOCCOCCCN*; C16 diacid = O=C(O)CCCCCCCCCCCCCCC(=O)*; γGlu = O=C(O)[C@H](CCC(=O)[*:2])N[*:1]; Hyp = O=C(O)[C@@H]1C[C@@H](O)CN1; NHhexadecyl = CCCCCCCCCCCCCCCCN*; Myristoyl = CCCCCCCCCCCCCC(=O)*; NHtetradecyl = CCCCCCCCCCCCCCN*; NMeNle = CCCC[C@H](NC)C(=O)O; Tle = CC(C)(C)[C@H](N)C(=O)O; NMeA = CN[C@@H](C)C(=O)O; Aun = NCCCCCCCCCCC(=O)O; Dab = NCC[C@H](N)C(=O)O; Dap = NC[C@H](N)C(=O)O

By IC50 is commonly meant the concentration needed to halve the response being measured.

The target of this test is T1, PD-L1 (Homo sapiens, UniProt Q9NZQ7).
T1 construct: hPDL1(19-239)-TVMV-His; made in house; host or cells: HEK293T
T1 sequence (Q9NZQ7 with tags, fused parts or gaps): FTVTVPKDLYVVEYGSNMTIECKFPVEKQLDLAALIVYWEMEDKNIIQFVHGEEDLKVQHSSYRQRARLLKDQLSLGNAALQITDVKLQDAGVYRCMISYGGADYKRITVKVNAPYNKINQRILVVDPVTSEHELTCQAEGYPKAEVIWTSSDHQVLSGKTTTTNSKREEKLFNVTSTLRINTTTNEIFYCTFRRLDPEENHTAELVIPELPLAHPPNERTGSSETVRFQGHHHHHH
Nature of the test: PD-1/PD-L1 Homogenous Time-Resolved Fluorescence (HTRF) binding assay (PD-1-Ig/PD-L1-His). Conditions: inhibition of PD-1-Ig binding to PD-L1-TVMV-His; value given as range class; read-out: HTRF IC50. The method, boiled down: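 HTRF competition in dPBS with 0.1% BSA and 0.05% Tween-20: 20 nM PD-1-Ig added after 15 min compound pre-incubation with 10 nM PD-L1-His, then another 15 min. Signal (665/620 nm) after 30 min with APC anti-His (20 nM) and Eu anti-Ig (1 nM).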
As for `CCCCCCCCCCCCCCNC(=O)CNC(=O)CNC(=O)[C@@H]1CSCC(=O)N[C@@H](Cc2ccc(O)cc2)C(=O)N(C)[C@@H](C)C(=O)N[C@@H](CC(N)=O)C(=O)N2CCC[C@H]2C(=O)N[C@@H](CCN)C(=O)N[C@@H](CC(C)C)C(=O)N2C[C@H](O)C[C@H]2C(=O)N[C@@H](Cc2c[nH]c3ccccc23)C(=O)N[C@@H](C(C)(C)C)C(=O)N[C@@H](Cc2c[nH]c3ccccc23)C(=O)N(C)[C@@H](CCCC)C(=O)N(C)[C@@H](CCCC)C(=O)N[C@@H](CCCNC(=N)N)C(=O)N1` [Example 11107] ({CH2CO}-Y[NMeA]NP[Dab]L[Hyp]W[Tle]W[NMeNle][NMeNle]RCGG-NHtetradecyl; thioether N-14), the IC50 fell in the range of 100 to 1600 nM.
The value for `CCCCCCCCCCCCCCCCNC(=O)CNC(=O)CNC(=O)CNC(=O)CNC(=O)[C@@H]1CSCC(=O)N[C@@H](Cc2ccc(O)cc2)C(=O)N(C)[C@@H](C)C(=O)N[C@@H](CC(N)=O)C(=O)N2CCC[C@H]2C(=O)N[C@@H](CN)C(=O)N[C@@H](CC(C)C)C(=O)N2C[C@H](O)C[C@H]2C(=O)N[C@@H](Cc2c[nH]c3ccccc23)C(=O)N[C@@H](CO)C(=O)N[C@@H](Cc2c[nH]c3ccccc23)C(=O)N(C)[C@@H](CCCC)C(=O)N(C)[C@@H](CCCC)C(=O)N[C@@H](CCCNC(=N)N)C(=O)N1` [Example 11108] ({CH2CO}-Y[NMeA]NP[Dap]L[Hyp]WSW[NMeNle][NMeNle]RCGGGG-NHhexadecyl; thioether N-14) was 100 to 1600 nM; that for `CCCCCCCCCCCCCCCCNC(=O)CNC(=O)CNC(=O)[C@@H]1CSCC(=O)N[C@@H](Cc2ccc(O)cc2)C(=O)N(C)[C@@H](C)C(=O)N[C@@H](CC(N)=O)C(=O)N2CCC[C@H]2C(=O)N[C@@H](CCC(=O)O)C(=O)N[C@@H](CC(C)C)C(=O)N2C[C@H](O)C[C@H]2C(=O)N[C@@H](Cc2c[nH]c3ccccc23)C(=O)N[C@@H](CO)C(=O)N[C@@H](Cc2c[nH]c3ccccc23)C(=O)N(C)[C@@H](CCCC)C(=O)N(C)[C@@H](CCCC)C(=O)N[C@@H](CCCNC(=N)N)C(=O)N1` [Example 11109] ({CH2CO}-Y[NMeA]NPEL[Hyp]WSW[NMeNle][NMeNle]RCGG-NHhexadecyl; thioether N-14) was 100 to 1600 nM; that for `CCCCCCCCCCCCCCCCNC(=O)CCCCCCCCCCNC(=O)CNC(=O)[C@@H]1CSCC(=O)N[C@@H](Cc2ccc(O)cc2)C(=O)N(C)[C@@H](C)C(=O)N[C@@H](CC(N)=O)C(=O)N2CCC[C@H]2C(=O)N[C@@H](Cc2cnc[nH]2)C(=O)N[C@@H](CC(C)C)C(=O)N2C[C@H](O)C[C@H]2C(=O)N[C@@H](Cc2c[nH]c3ccccc23)C(=O)N[C@@H](CO)C(=O)N[C@@H](Cc2c[nH]c3ccccc23)C(=O)N(C)[C@@H](CCCC)C(=O)N(C)[C@@H](CCCC)C(=O)N[C@@H](CCCNC(=N)N)C(=O)N1` [Example 11112] ({CH2CO}-Y[NMeA]NPHL[Hyp]WSW[NMeNle][NMeNle]RCG[Aun]-NHhexadecyl; thioether N-14) was 100 to 1600 nM.
On to `CCCCCCCCCCCCCC(=O)N[C@@H](CCC(=O)NCCCC[C@H](NC(=O)CNC(=O)CNC(=O)CNC(=O)CNC(=O)[C@@H]1CSCC(=O)N[C@@H](Cc2ccc(O)cc2)C(=O)N(C)[C@@H](C)C(=O)N[C@@H](CC(N)=O)C(=O)N2CCC[C@H]2C(=O)N[C@@H](Cc2cnc[nH]2)C(=O)N[C@@H](CC(C)C)C(=O)N2C[C@H](O)C[C@H]2C(=O)N[C@@H](Cc2c[nH]c3ccccc23)C(=O)N[C@@H](CO)C(=O)N[C@@H](Cc2c[nH]c3ccccc23)C(=O)N(C)[C@@H](CCCC)C(=O)N(C)[C@@H](CCCC)C(=O)N[C@@H](CCCNC(=N)N)C(=O)N1)C(N)=O)C(=O)O` [Example 11114] ({CH2CO}-Y[NMeA]NPHL[Hyp]WSW[NMeNle][NMeNle]RCGGGGK([γGlu-Myristoyl])-NH2; thioether N-14), for which the IC50 was in the range of 100 to 1600 nM.
For the compound `CCCCCCCCCCCCCCCCNC(=O)CCCCCCCCCCNC(=O)[C@@H]1CSCC(=O)N[C@@H](Cc2ccc(O)cc2)C(=O)N(C)[C@@H](C)C(=O)N[C@@H](CC(N)=O)C(=O)N2CCC[C@H]2C(=O)N[C@@H](Cc2cnc[nH]2)C(=O)N[C@@H](CC(C)C)C(=O)N2C[C@H](O)C[C@H]2C(=O)N[C@@H](Cc2c[nH]c3ccccc23)C(=O)N[C@@H](CO)C(=O)N[C@@H](Cc2c[nH]c3ccccc23)C(=O)N(C)[C@@H](CCCC)C(=O)N(C)[C@@H](CCCC)C(=O)N[C@@H](CCCNC(=N)N)C(=O)N1` [Example 11115], the IC50 is 100 to 1600 nM.
`CCCCCCCCCCCCCC(=O)N[C@@H](CCC(=O)NCCCC[C@H](NC(=O)CNC(=O)CNC(=O)CNC(=O)[C@@H]1CSCC(=O)N[C@@H](Cc2ccc(O)cc2)C(=O)N(C)[C@@H](C)C(=O)N[C@@H](CC(N)=O)C(=O)N2CCC[C@H]2C(=O)N[C@@H](Cc2cnc[nH]2)C(=O)N[C@@H](CC(C)C)C(=O)N2C[C@H](O)C[C@H]2C(=O)N[C@@H](Cc2c[nH]c3ccccc23)C(=O)N[C@@H](CO)C(=O)N[C@@H](Cc2c[nH]c3ccccc23)C(=O)N(C)[C@@H](CCCC)C(=O)N(C)[C@@H](CCCC)C(=O)N[C@@H](CCCNC(=N)N)C(=O)N1)C(N)=O)C(=O)O` [Example 11116] ({CH2CO}-Y[NMeA]NPHL[Hyp]WSW[NMeNle][NMeNle]RCGGGK([γGlu-Myristoyl])-NH2; thioether N-14): the IC50 was in the range of 10 to 99 nM.
With `CCCCCCCCCCCCCCCCNC(=O)[C@H](CC(=O)O)NC(=O)CCCCCCCCCCNC(=O)[C@@H]1CSCC(=O)N[C@@H](Cc2ccc(O)cc2)C(=O)N(C)[C@@H](C)C(=O)N[C@@H](CC(N)=O)C(=O)N2CCC[C@H]2C(=O)N[C@@H](Cc2cnc[nH]2)C(=O)N[C@@H](CC(C)C)C(=O)N2C[C@H](O)C[C@H]2C(=O)N[C@@H](Cc2c[nH]c3ccccc23)C(=O)N[C@@H](CO)C(=O)N[C@@H](Cc2c[nH]c3ccccc23)C(=O)N(C)[C@@H](CCCC)C(=O)N(C)[C@@H](CCCC)C(=O)N[C@@H](CCCNC(=N)N)C(=O)N1` [Example 11119], the IC50 was in the range of 100 to 1600 nM.
As for `CCCCCCCCCCCCCCCCNC(=O)[C@H](CC(=O)O)NC(=O)CNC(=O)CNC(=O)CNC(=O)[C@@H]1CSCC(=O)N[C@@H](Cc2ccc(O)cc2)C(=O)N(C)[C@@H](C)C(=O)N[C@@H](CC(=O)O)C(=O)N2CCC[C@H]2C(=O)N[C@@H](Cc2cnc[nH]2)C(=O)N[C@@H](CC(C)C)C(=O)N2C[C@H](O)C[C@H]2C(=O)N[C@@H](Cc2c[nH]c3ccccc23)C(=O)N[C@@H](CO)C(=O)N[C@@H](Cc2c[nH]c3ccccc23)C(=O)N(C)[C@@H](CCCC)C(=O)N(C)[C@@H](CCCC)C(=O)N[C@@H](CCCNC(=N)N)C(=O)N1` [Example 11120] ({CH2CO}-Y[NMeA]DPHL[Hyp]WSW[NMeNle][NMeNle]RCGGGD-NHhexadecyl; thioether N-14), the IC50 lay within 100 to 1600 nM.
Under `CCCCCCCCCCCCCC(=O)N[C@@H](CCC(=O)NCCCC[C@H](NC(=O)[C@H](CC(=O)O)NC(=O)CNC(=O)CNC(=O)[C@@H]1CSCC(=O)N[C@@H](Cc2ccc(O)cc2)C(=O)N(C)[C@@H](C)C(=O)N[C@@H](CC(=O)O)C(=O)N2CCC[C@H]2C(=O)N[C@@H](Cc2cnc[nH]2)C(=O)N[C@@H](CC(C)C)C(=O)N2C[C@H](O)C[C@H]2C(=O)N[C@@H](Cc2c[nH]c3ccccc23)C(=O)N[C@@H](CO)C(=O)N[C@@H](Cc2c[nH]c3ccccc23)C(=O)N(C)[C@@H](CCCC)C(=O)N(C)[C@@H](CCCC)C(=O)N[C@@H](CCCNC(=N)N)C(=O)N1)C(N)=O)C(=O)O` [Example 11123] ({CH2CO}-Y[NMeA]DPHL[Hyp]WSW[NMeNle][NMeNle]RCGGDK([γGlu-Myristoyl])-NH2; thioether N-14) stands 10 to 99 nM.
The value for `CCCCCCCCCCCCCCCCNC(=O)CCC(=O)NCCCOCCOCCOCCCNC(=O)CNC(=O)[C@@H]1CSCC(=O)N[C@@H](Cc2ccc(O)cc2)C(=O)N(C)[C@@H](C)C(=O)N[C@@H](CC(=O)O)C(=O)N2CCC[C@H]2C(=O)N[C@@H](Cc2cnc[nH]2)C(=O)N[C@@H](CC(C)C)C(=O)N2C[C@H](O)C[C@H]2C(=O)N[C@@H](Cc2c[nH]c3ccccc23)C(=O)N[C@@H](CO)C(=O)N[C@@H](Cc2c[nH]c3ccccc23)C(=O)N(C)[C@@H](CCCC)C(=O)N(C)[C@@H](CCCC)C(=O)N[C@@H](CCCNC(=N)N)C(=O)N1` [Example 11124] ({CH2CO}-Y[NMeA]DPHL[Hyp]WSW[NMeNle][NMeNle]RCG-X27; thioether N-14) was 100 to 1600 nM; that for `CCCCCCCCCCCCCC(=O)N[C@H](CCC(=O)NCCCC[C@H](NC(=O)CCC(=O)NCCCOCCOCCOCCCNC(=O)CNC(=O)[C@@H]1CSCC(=O)N[C@@H](Cc2ccc(O)cc2)C(=O)N(C)[C@@H](C)C(=O)N[C@@H](CC(=O)O)C(=O)N2CCC[C@H]2C(=O)N[C@@H](Cc2cnc[nH]2)C(=O)N[C@@H](CC(C)C)C(=O)N2C[C@H](O)C[C@H]2C(=O)N[C@@H](Cc2c[nH]c3ccccc23)C(=O)N[C@@H](CO)C(=O)N[C@@H](Cc2c[nH]c3ccccc23)C(=O)N(C)[C@@H](CCCC)C(=O)N(C)[C@@H](CCCC)C(=O)N[C@@H](CCCNC(=N)N)C(=O)N1)C(N)=O)C(=O)O` [Example 11125] ({CH2CO}-Y[NMeA]DPHL[Hyp]WSW[NMeNle][NMeNle]RCG-X22; thioether N-14) was 10 to 99 nM.
On to `CCCC[C@H]1C(=O)N(C)[C@@H](CCCC)C(=O)N[C@@H](CCCNC(=N)N)C(=O)N[C@H](C(=O)NCC(=O)NCC(=O)N[C@@H](CC(=O)O)C(=O)N[C@@H](CCCCNC(=O)CCCCCCCCCCCCCCC(=O)O)C(N)=O)CSCC(=O)N[C@@H](Cc2ccc(O)cc2)C(=O)N(C)[C@@H](C)C(=O)N[C@@H](CC(=O)O)C(=O)N2CCC[C@H]2C(=O)N[C@@H](Cc2cnc[nH]2)C(=O)N[C@@H](CC(C)C)C(=O)N2C[C@H](O)C[C@H]2C(=O)N[C@@H](Cc2c[nH]c3ccccc23)C(=O)N[C@@H](CO)C(=O)N[C@@H](Cc2c[nH]c3ccccc23)C(=O)N1C` [Example 11126] ({CH2CO}-Y[NMeA]DPHL[Hyp]WSW[NMeNle][NMeNle]RCGGDK(C16 diacid)-NH2; thioether N-14), for which the IC50 fell in the range of 10 to 99 nM.

Values taken from patent US10633419B2, “Immunomodulators” (BRISTOL-MYERS SQUIBB COMPANY, priority 2014, dated 2020).
